Experimental data as given in patent US11780826B2 (Amgen Inc., priority 2017, dated 2023).

System: Bovine cardiac myofibrils
Assay: In vitro model of dose-dependent myofibril ATPase modulation (AC1.4, pyruvate kinase/lactate dehydrogenase-coupled ATPase assay at pCa25)
Assay type: biochemical
Settings: concentration at which ATPase activity was 1.4-fold higher than the bottom of the dose curve, mean of a minimum of two independent tests
Method in brief: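 Coupled-enzyme ATPase on bovine heart myofibrils, 1 mM ATP, EGTA/CaCl2 buffered; 340 nm readout.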

Row | Structure (SMILES) | AC1.4 [µM]
1 | CN1CC(C(=O)N[C@@H](c2ccc(C(F)(F)F)cc2F)C2CC2)N(C(=O)c2cccc(S(C)(=O)=O)c2)C1=O (stereo partly drawn) [Example 696, N-((R)-cyclopropyl(2-fluoro-4-(trifluoromethyl)phenyl)methyl)-1-methyl-3-(3-(methylsulfonyl)benzoyl)-2-oxoimidazolidine-4-carboxamide] | 5.525
2 | O=C(NCc1ccc(C(F)(F)F)cc1)[C@H]1CCCN1C(=O)[C@H]1CCCN(S(=O)(=O)N2CC(c3ccccn3)C2)C1 [Example 707, 1-(((3S)-1-((3-(2-pyridinyl)-1-azetidinyl)sulfonyl)-3-piperidinyl)carbonyl)-N-(4-(trifluoromethyl)benzyl)-D-prolinamide] | 5.821
3 | CC1(O)CC([C@@H](NC(=O)[C@H]2C[C@H]3C[C@H]3N2C(=O)c2cccc(S(C)(=O)=O)c2)c2cc(F)c(C(F)(F)F)cc2F)C1 (stereo partly drawn) [Example 829, (1R,3R,5R)-N-((R)-(2,5-difluoro-4-(trifluoromethyl)phenyl)(3-hydroxy-3-methylcyclobutyl)methyl)-2-(3-(methylsulfonyl)benzoyl)-2-azabicyclo[3.1.0]hexane-3-carboxamide] | 1.702
4 | CC[C@@H](NC(=O)[C@H]1CCCN1C(=O)c1cccc(S(C)(=O)=O)c1)c1cc(F)c(Cl)cc1F [Example 453, N-((1R)-1-(4-chloro-2,5-difluorophenyl)propyl)-1-(3-(methylsulfonyl)benzoyl)-D-prolinamide] | 1.5515
5 | CS(=O)(=O)c1cccc(C(=O)N2[C@@H](C(=O)N[C@@H](c3ccc(C(F)(F)F)c(F)c3)C3CC3)C[C@H]3C[C@H]32)c1 [Example 307, (1R,3R,5R)-N-((R)-cyclopropyl(3-fluoro-4-(trifluoromethyl)phenyl)methyl)-2-(3-(methylsulfonyl)benzoyl)-2-azabicyclo[3.1.0]hexane-3-carboxamide] | 0.8008
6 | C[C@@H](NC(=O)[C@H]1COCCN1C(=O)c1cccc(S(=O)(=O)N2CC(C#N)C2)c1)c1ccc(C(F)(F)F)cc1 [Example 19, (R)-4-(3-((3-cyanoazetidin-1-yl)sulfonyl)benzoyl)-N—((R)-1-(4-(trifluoromethyl)phenyl)ethyl)morpholine-3-carboxamide] | 0.02495
7 | O=C(N[C@@H](c1cc(F)c(C(F)(F)F)cc1F)C1CC1)[C@H]1C[C@H]2C[C@H]2N1C(=O)c1cc(C2CC2)ccn1 [Example 593, (1R,3R,5R)-N-((R)-cyclopropyl(2,5-difluoro-4-(trifluoromethyl)phenyl)methyl)-2-((4-cyclopropyl-2-pyridinyl)carbonyl)-2-azabicyclo[3.1.0]hexane-3-carboxamide] | 3.49
8 | CCC1(O)CN(S(=O)(=O)N2CCC[C@H](C(=O)N3CCC[C@@H]3C(=O)NCc3ccc(C(F)(F)F)cc3F)C2)C1 [Example 509, 1-(((3S)-1-((3-ethyl-3-hydroxy-1-azetidinyl)sulfonyl)-3-piperidinyl)carbonyl)-N-(2-fluoro-4-(trifluoromethyl)benzyl)-D-prolinamide] | 2.3995
9 | CS(=O)(=O)c1cccc(C(=O)N2CCC[C@@H]2C(=O)N[C@@H](c2ccc(C(F)(F)F)cc2F)C2(F)COC2)c1 [Example 673, N-((S)-(3-fluoro-3-oxetanyl)(2-fluoro-4-(trifluoromethyl)phenyl)methyl)-1-(3-(methylsulfonyl)benzoyl)-D-prolinamide] | 4.897
10 | Cc1ccc(CNC(=O)[C@H]2CCCN2C(=O)[C@@H]2CN(S(=O)(=O)N3CC(C#N)C3)CCN2)cc1F [Example 334, 1-(((2S)-4-((3-cyano-1-azetidinyl)sulfonyl)-2-piperazinyl)carbonyl)-N-(3-fluoro-4-methylbenzyl)-D-prolinamide] | 0.9294
11 | O=C(NCc1ccc(C(F)(F)F)cc1)[C@H]1CCCN1C(=O)[C@H]1CCCN(S(=O)(=O)N2CC(O)(C(F)(F)F)C2)C1 [Example 467, 1-(((3S)-1-((3-hydroxy-3-(trifluoromethyl)-1-azetidinyl)sulfonyl)-3-piperidinyl)carbonyl)-N-(4-(trifluoromethyl)benzyl)-D-prolinamide] | 1.9675
12 | N#CC1CN(S(=O)(=O)N2CCO[C@H](C(=O)N3CCC[C@@H]3C(=O)NCc3ccc(Cl)cc3F)C2)C1 [Example 187, N-(4-chloro-2-fluorobenzyl)-1-(((2S)-4-((3-cyano-1-azetidinyl)sulfonyl)-2-morpholinyl)carbonyl)-D-prolinamide] | 0.3409
13 | O=C(NCc1ccc(C(F)(F)F)cc1)[C@H]1CCCN1C(=O)[C@H]1CCCN(S(=O)(=O)N2CCC2Cc2ccccc2)C1 (stereo partly drawn) [Example 720, (2R)-1-((3S)-1-((2-benzylazetidin-1-yl)sulfonyl)piperidine-3-carbonyl)-N-(4-(trifluoromethyl)benzyl)pyrrolidine-2-carboxamide] | 6.27
14 | Cc1cc(C(=O)N2[C@@H](C(=O)N[C@@H](c3cc(F)c(Cl)cc3F)C3COC3)C[C@H]3C[C@H]32)ccn1 [Example 621, (1R,3R,5R)-N-((R)-(4-chloro-2,5-difluorophenyl)(3-oxetanyl)methyl)-2-((2-methyl-4-pyridinyl)carbonyl)-2-azabicyclo[3.1.0]hexane-3-carboxamide] | 3.9478
15 | O=C(NCc1ccc(C(F)(F)F)cc1)[C@H]1CCCN1C(=O)c1cccc(S(=O)(=O)N2CC[C@@H](O)C2)c1 [Example 560, 1-((3-(((3R)-3-hydroxy-1-pyrrolidinyl)sulfonyl)phenyl)carbonyl)-N-(4-(trifluoromethyl)benzyl)-D-prolinamide,1-((3-(((3S)-3-hydroxy-1-pyrrolidinyl)sulfonyl)phenyl)carbonyl)-N-(4-(trifluoromethyl)benzyl)-D-prolinamide] | 2.9638
16 | N#CC1CN(S(=O)(=O)N2CCC[C@H](C(=O)N3CCC[C@@H]3C(=O)N[C@@H](c3cc(F)c(Cl)cc3F)C3CC3)C2)C1 [Example 39, N-((R)-(4-chloro-2,5-difluorophenyl)(cyclopropyl)methyl)-1-(((3S)-1-((3-cyano-1-azetidinyl)sulfonyl)-3-piperidinyl)carbonyl)-D-prolinamide] | 0.0394
17 | CCS(=O)(=O)c1cccc(C(=O)N2[C@@H](C(=O)N[C@@H](c3ccc(C(F)(F)F)cc3)C3(O)CCC3)C[C@H]3C[C@H]32)c1 [Example 522, (1R,3R,5R)-2-(3-(ethylsulfonyl)benzoyl)-N-((S)-(1-hydroxycyclobutyl)(4-(trifluoromethyl)phenyl)methyl)-2-azabicyclo[3.1.0]hexane-3-carboxamide] | 2.4145
18 | Cc1ccnc(C(=O)N2[C@@H](C(=O)N[C@@H](c3cc(F)c(Cl)cc3F)C3COC3)C[C@H]3C[C@H]32)c1 [Example 600, (1R,3R,5R)-N-((R)-(4-chloro-2,5-difluorophenyl)(3-oxetanyl)methyl)-2-((4-methyl-2-pyridinyl)carbonyl)-2-azabicyclo[3.1.0]hexane-3-carboxamide] | 3.6113
19 | Cc1ccc(C(C)NC(=O)[C@H]2CCCN2C(=O)[C@H]2CCCN(S(=O)(=O)N3CC(C#N)C3)C2)cc1F (stereo partly drawn) [Example 155, 1-(((3S)-1-((3-cyano-1-azetidinyl)sulfonyl)-3-piperidinyl)carbonyl)-N-(-1-(3-fluoro-4-methylphenyl)ethyl)-D-prolinamide] | 0.272
20 | N#CC1CN(S(=O)(=O)N2CCC[C@H](C(=O)N3CCC[C@@H]3C(=O)NCc3ccc(F)c(Cl)c3)C2)C1 [Example 272, N-(3-chloro-4-fluorobenzyl)-1-(((3S)-1-((3-cyano-1-azetidinyl)sulfonyl)-3-piperidinyl)carbonyl)-D-prolinamide] | 0.6904
21 | CC(C)Nc1ccc(S(C)(=O)=O)cc1C(=O)N1[C@@H](C(=O)N[C@@H](c2ccc(C(F)(F)F)cc2F)C2CC2)C[C@H]2C[C@H]21 [Example 61, (1R,3R,5R)-N-((R)-cyclopropyl(2-fluoro-4-(trifluoromethyl)phenyl)methyl)-2-(5-(methylsulfonyl)-2-(2-propanylamino)benzoyl)-2-azabicyclo[3.1.0]hexane-3-carboxamide] | 0.0687
22 | N#CC1CN(S(=O)(=O)N2CCC[C@H](C(=O)N3CCC[C@@H]3C(=O)NCc3ccc(OC(F)F)cc3)C2)C1 [Example 435, 1-(((3S)-1-((3-cyano-1-azetidinyl)sulfonyl)-3-piperidinyl)carbonyl)-N-(4-(difluoromethoxy)benzyl)-D-prolinamide] | 1.681
23 | NS(=O)(=O)c1cccc(C(=O)N2CCC[C@@H]2C(=O)N[C@@H](c2cc(F)c(Cl)cc2F)C2CC2)c1 [Example 224, N-((R)-(4-chloro-2,5-difluorophenyl)(cyclopropyl)methyl)-1-(3-sulfamoylbenzoyl)-D-prolinamide] | 0.485
24 | O=C(N[C@@H](c1ccc(C(F)(F)F)cc1F)C1COC1)[C@H]1C[C@H]2C[C@H]2N1C(=O)c1cncc(C2CC2)c1 [Example 611, (1R,3R,5R)-2-((5-cyclopropyl-3-pyridinyl)carbonyl)-N-((R)-(2-fluoro-4-(trifluoromethyl)phenyl)(3-oxetanyl)methyl)-2-azabicyclo[3.1.0]hexane-3-carboxamide] | 3.788
25 | C[C@@H](NC(=O)[C@H]1CCCN1C(=O)[C@@H]1CN(S(=O)(=O)N2CC(C#N)C2)CCN1)c1ccc(C(F)(F)F)cc1 [Example 428, 1-(((2S)-4-((3-cyano-1-azetidinyl)sulfonyl)-2-piperazinyl)carbonyl)-N-((1R)-1-(4-(trifluoromethyl)phenyl)ethyl)-D-prolinamide] | 1.606
26 | CN(C)S(=O)(=O)c1cccc(C(=O)N2CCC[C@@H]2C(=O)N[C@@H](c2ccc(C(F)(F)F)cc2F)C2CC2)c1 [Example 58, N-((R)-cyclopropyl(2-fluoro-4-(trifluoromethyl)phenyl)methyl)-1-(3-(dimethylsulfamoyl)benzoyl)-D-prolinamide] | 0.06485
